Values of other authors, collected in patent US12678439B2 (DOUGLAS PHARMACEUTICALS LIMITED, priority 2018, dated 2026).

- solubility in water: virtually insoluble
SMILES: Cc1cccc(C)c1OCC(=O)N[C@@H](Cc1ccccc1)[C@@H](O)C[C@H](Cc1ccccc1)NC(=O)[C@H](C(C)C)N1CCCNC1=O (relative stereo) [Lopinavir, [1S-[1R*(R*), 3R*, 4R*]]—N-[4-[(2,6-dimethylphenoxyl0acetyl]amino]-3-hydroxy-5-phenyl-1-(phenylmethyl)pentyl]tetrahydro-alpha-(1-methylethyl)-2-oxo-1(2H)-pyrimidineacetamide]
